The subject of experiment [1] is RBCs. Description: C-peptide binding to RBCs, ELISA of supernatant (Example 2 protocol; hematocrit and storage variations). It counts as cell-based, human. The settings on record: for average C-peptide bound to the RBCs: 7% hematocrit, 20 nM C-peptide, 75 μM BSA (0.5%), 2 hours at 37° C. How it is done:
All samples were handled in an identical manner. Briefly, about 10 mL of blood was drawn from each donor; the RBCs were purified by centrifugation; and the RBCs were suspended in physiological salt solution (PSS). Then RBCs were combined with PSS (containing bovine serum albumin (BSA) as a C-peptide binding facilitator) and C-peptide to generate a mixture having a 7% hematocrit, 20 nM C-peptide, and 75 μM BSA (0.5%). The mixture was allowed to incubate for 2 hours at 37° C. Next, the samples were centrifuged to separate the cells from solution, the solution was diluted 1:50 with double distilled water, and the amount of C-peptide remaining in the solution was determined by ELISA. This provided a value corresponding to the moles of C-peptide bound to the RBCs. […] Whereas blood from the healthy controls bound an average of 1.99±0.32 pmoles C-peptide, blood from MS patients and OND patients bound averages of 3.51±0.59 pmoles of C-peptide and 2.23±0.51 pmoles of C-peptide, respectively. As shown by p values of less than 0.001, the increase in C-peptide binding relative to healthy controls and OND patients is significant.
Experiments were performed to determine the effect of hematocrit on C-peptide binding to RBCs. The experiment was conducted as described above in Experiment 2, except various hematocrits were tested. […] In general, increase the hematocrit results in a substantially linear increase in C-peptide binding when the RBCs are saturated with C-peptide.
Experiments were performed to determine the stability of the whole blood. The experiment was conducted as described above in Experiment 2, except the blood was stored in citrate tubes at 4° C. over a period of 4 days during the experiment. Only blood from healthy patients was tested.
Experiments were performed to determine the stability of supernatant generated after separating cells from solution as described in Experiment 2. The protocol of Experiment 2 was repeated on blood from healthy patients, but the supernatant was stored at 4° C. for from 1 to 3 days prior to determining C-peptide binding by the RBCs.
Experiments were performed to determine the stability of supernatant generated after separating cells from solution as described in Experiment 2. The protocol of Experiment 2 was repeated on blood from healthy patients, but the supernatant was stored at −20° C. from 0 (day of draw) to 6 weeks prior to determining C-peptide binding by the RBCs.
(In general: In an ELISA, binding on a coated surface is turned into a signal by an enzyme label.)

Experiment [2] concerns bovine pulmonary artery endothelial cells. Description: C-peptide binding to endothelial cells. It is filed as cell-based. Particulars: 1 hour at 37° C., 10 nM Zn2+ and C-peptide in DMEM containing serum. How it is done: Additional experiments were performed to determine whether a C-peptide facilitator can facilitate binding of C-peptide to cells expressing Glut1 other than RBCs. Endothelial cells (bovine pulmonary artery endothelial cells) were grown to confluency on 12-well tissue culture plates. When the cell reached confluency, they were incubated in Dulbecco's Modified Eagle Medium (DMEM) containing serum for 24 hours. Following incubation, the cells were washed and incubated for 1 hour at 37° C. in the presence of 10 nM Zn^2+ and C-peptide in DMEM containing serum. The endothelial cells were determined to have bound 2.0±0.1 attomoles of C-peptide per endothelial cell.

For experiment [3], the system named is Neutrophils from healthy control patients. The experiment in a line: C-peptide binding to neutrophils. It is filed as cell-based, human. Particulars: 20 nM C-peptide, 1 hour at 37° C. The procedure: Neutrophils from healthy control patients were also tested. The neutrophils were isolated using techniques known in the art. Briefly, blood was drawn into a heparin-coated vacutainer. An equal volume of 3% Dextran was added to drawn whole blood in sterile 50 mL tubes. After inverting, the tubes were set upright for 30 minutes at room temperature to generate a plurality of layers. The top layer was aspirated and transferred to a new 50 mL tube and centrifuged at 500 g for 10 minutes at 4° C. The resulting top layer was discarded. The resulting pellet was resuspended in 10 mL 0.9% saline. After pooling suspensions together in a single tube, it was underplayed with 10 mL of hypaqu-ficoll and centrifuged at 800 g for 15 minutes at room temperature. The resulting liquid band was removed and the remainder was resuspended in 20 mL 0.2% saline and mixed. 20 mL of 1.6% saline was then added to the suspension and it was centrifuged at 250 g for 6 minutes at 4° C. The supernatant was removed and the pellet was suspended in PBS for use in experiments. The cells were counted and then incubated with 20 nM C-peptide for 1 hour at 37° C. to generate an incubated sample. The incubated sample was centrifuged and the amount of C-peptide in the supernatant was determined by ELISA. The neutrophils were determined to have bound 2.68 attomoles of C-peptide per neutrophil.

Experiment [4] concerns RBCs. The experiment in a line: C-peptide binding to RBCs (Example 1, supernatant subtraction). It is filed as cell-based. The settings on record: RBCs of individual healthy controls; 20 picomoles human C-peptide, 75 micromolar albumin, 2 hours. The procedure: The amount of C-peptide binding to RBCs obtained from MS patients was compared to controls run on the same day. All samples were handled in an identical manner. Briefly, about 10 mL of blood were drawn from each donor; the RBCs were purified by centrifugation. Next, 20 picomoles of human C-peptide were added to a buffer containing 75 micromolar albumin. RBCs were added to this C-peptide and albumin-containing buffer and allowed to incubate for 2 hours. Next, the samples were centrifuged and the moles of C-peptide remaining in the supernatant are subtracted from the original amount added. This provided a value corresponding to the moles of C-peptide bound to the RBCs. […] Importantly, of the 25 MS patient samples analyzed, the values ranged from 2.7 to 4.8 picomoles of C-peptide bound to the RBCs, with 18 of the 25 above 3.2 picomoles. In comparison, one control was 3.1, another was 2.8; all others were below 2.45. Thus, separation exists between groups—approximately […] of bound C-peptide difference.

Where “and” joins values, the source holds several entries; their conditions need not be identical. Equal values may be shown once.

For “C-peptide (EAEDLQVGQVELGGGPGAGSLQPLALEGSLQ; listed as Homo sapiens) [approximately 30 amino acid polypeptide that connects the A and B chain of mature insulin within the proinsulin molecule]”, the results for the “average C-peptide bound to the RBCs” value with RBCs [1] (MS patients), with RBCs [1] (OND patients) and with RBCs [1] (healthy controls) were 3.51 ± 0.59 pmol, 2.23 ± 0.51 pmol and 1.99 ± 0.32 pmol, respectively. In addition, the C-peptide binding in the experiment with RBCs [1] (healthy blood stored in citrate tubes at 4° C., day 1) came out at 2.38 pmol; in the experiment with RBCs [1] (healthy blood stored in citrate tubes at 4° C., day 2), 2.23 pmol; in the experiment with RBCs [1] (healthy blood stored in citrate tubes at 4° C., day 3) it was 2.14 pmol; in the experiment on RBCs [1] (healthy blood stored in citrate tubes at 4° C., day 4), 1.83 pmol; with RBCs [1] (healthy blood, supernatant stored at 4° C., day 1), 2.23 pmol; in the experiment on RBCs [1] (healthy blood, supernatant stored at 4° C., day 2), 2.17 pmol. Moreover, the C-peptide binding with RBCs [1] (healthy blood, supernatant stored at 4° C., day 3) was 2.20 pmol; with RBCs [1] (healthy blood, supernatant stored at −20° C., week 0 (day of draw)) it was 2.45 pmol; with RBCs [1] (healthy blood, supernatant stored at −20° C., week 1), 2.48 pmol; in the experiment on RBCs [1] (healthy blood, supernatant stored at −20° C., week 3), 2.30 pmol; with RBCs [1] (healthy blood, supernatant stored at −20° C., week 6) it was 2.34 pmol; with RBCs [1] (healthy individuals that do not have MS) it was “about 1500 C-peptide molecules per cell”. Besides, the “C-peptide binding by RBCs, Control” value in the experiment with RBCs [1] (hematocrit 3.50%) was found to be 1.18 pmol; with RBCs [1] (hematocrit 7%), 2.18 pmol; in the experiment on RBCs [1] (hematocrit 14%), 4.78 pmol. For the same substance, the “C-peptide binding by RBCs, MS” value came out at 1.63 pmol with RBCs [1] (hematocrit 3.50%), 3.38 pmol in the experiment with RBCs [1] (hematocrit 7%) and 6.25 pmol with RBCs [1] (hematocrit 14%). The C-peptide bound in experiment [2] is given as 2.0±0.1 attomoles of C-peptide per endothelial cell; in experiment [3], 2.68 attomoles of C-peptide per neutrophil. In the experiment on RBCs [4], the “C-peptide bound to the RBCs” value is 3.1 and 2.8 and below 2.45.

The values above are taken from patent US10627415B2, “Compositions and methods for diagnosing, monitoring, and treating an autoimmune disease” (BOARD OF TRUSTEES OF MICHIGAN STATE UNIVERSITY, priority 2015, dated 2020).
